Article PMC12096079, “m^6A modification is incorporated into bacterial mRNA without specific functional benefit” (Nucleic Acids Research, 2025)

Target: YafS (Escherichia coli, UniProt P75672)
Experiment: intrinsic tryptophan fluorescence quenching titration (ex […] nm, em […] nm)
Assay type: binding

YafS, sequence (P75672 whole entry): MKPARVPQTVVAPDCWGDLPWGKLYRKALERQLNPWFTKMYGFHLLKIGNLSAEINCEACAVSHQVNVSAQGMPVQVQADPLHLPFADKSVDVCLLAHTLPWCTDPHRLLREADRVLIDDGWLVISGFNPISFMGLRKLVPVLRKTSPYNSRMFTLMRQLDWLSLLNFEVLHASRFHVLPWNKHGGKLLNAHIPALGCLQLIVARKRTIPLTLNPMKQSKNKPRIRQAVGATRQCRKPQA

Question: With C[S+](CC[C@H](N)C(=O)O)C[C@H]1O[C@@H](n2cnc3c(N)ncnc32)[C@H](O)[C@@H]1O (stereo partly shown) [SAM] as the molecule, how does the Kd read?
Answer: 680 ± 100 nM
